Laboratory results from US9944986B2, “Therapeutic targets for Alzheimer's disease” (The University of Birmingham, priority 2012, dated 2018).

How the values were obtained:
brain [1] = assay: T2 weighted MRI of brain after mTOR inhibition/activation; format: in vivo; settings: SD rats; rapamycin 0.2 mg/kg i.p., ketamine 30 mg/kg i.p.; n=3
Source text: (§1) There were three animals (n=3) in each group. Animals were sacrificed and the brain removed and frozen for imaging studies.

brain [2] = assay: MSI imaging of brain sections (phosphatidylcholines, choline, creatine); format: in vivo; settings: SD rats, rapamycin 0.2 mg/kg i.p., ketamine 30 mg/kg i.p.
Method: as §1
All MSI imaging experiments were performed on a Bruker ultrafleXtreme TOF/TOF mass spectrometer. For matrix evaluation, 4 serial sections of thickness 10 μm from sham control brain S2 were acquired using a Leica CM 1850 Cryostat and subsequently thaw mounted onto an ITO coated glass slide. Each section in turn was coated with 15 mL of 20 mg mL^−1 of CHCA in CH3OH, 0.1% TFA) using an artist airbrush while the remaining 2 sections were covered. Data were collected over the mass range m/z 60-1400. MSI experiments of a single section from each group (Rapa, Ket and Control) were conducted. […]. Images were acquired with a pixel size of 100 μm×100 μm.

With `CNC1(c2ccccc2Cl)CCCCC1=O` (stereo not shown) [ketamine] the “T2 weighted MRI images versus control animals” value (brain [1]) was “clear differences in the T2 weighted MRI images”, the “phosphatidylcholine species in the brain (ion images) relative to control” value (brain [2]) was “clear differences induced by mTOR inhibition or activation” and the “choline levels in the brain” value (brain [2]; vs control) was “measureable changes”. The “creatine levels in the brain” value (brain [2]; vs control) was “measureable changes”.
